# Assay results taken from patent US10052320B2, “Substituted quinoxalines as FGFR kinase inhibitors” (ASTEX THERAPEUTICS LIMITED, priority 2011, dated 2018).
# Read-outs that look alike come from different tables or passages of the source.
# Legend:
# Assay type in all cases: cell-based
# [1] = biological target: T1, Ba/F3-Flt3-transfected cells (Homo sapiens, UniProt P36888, cells depend on it, form not given); experiment: Ba/F3-Flt3 (minus IL3) cellular proliferation assay, Alamar Blue
# T1 sequence (P36888 1-993): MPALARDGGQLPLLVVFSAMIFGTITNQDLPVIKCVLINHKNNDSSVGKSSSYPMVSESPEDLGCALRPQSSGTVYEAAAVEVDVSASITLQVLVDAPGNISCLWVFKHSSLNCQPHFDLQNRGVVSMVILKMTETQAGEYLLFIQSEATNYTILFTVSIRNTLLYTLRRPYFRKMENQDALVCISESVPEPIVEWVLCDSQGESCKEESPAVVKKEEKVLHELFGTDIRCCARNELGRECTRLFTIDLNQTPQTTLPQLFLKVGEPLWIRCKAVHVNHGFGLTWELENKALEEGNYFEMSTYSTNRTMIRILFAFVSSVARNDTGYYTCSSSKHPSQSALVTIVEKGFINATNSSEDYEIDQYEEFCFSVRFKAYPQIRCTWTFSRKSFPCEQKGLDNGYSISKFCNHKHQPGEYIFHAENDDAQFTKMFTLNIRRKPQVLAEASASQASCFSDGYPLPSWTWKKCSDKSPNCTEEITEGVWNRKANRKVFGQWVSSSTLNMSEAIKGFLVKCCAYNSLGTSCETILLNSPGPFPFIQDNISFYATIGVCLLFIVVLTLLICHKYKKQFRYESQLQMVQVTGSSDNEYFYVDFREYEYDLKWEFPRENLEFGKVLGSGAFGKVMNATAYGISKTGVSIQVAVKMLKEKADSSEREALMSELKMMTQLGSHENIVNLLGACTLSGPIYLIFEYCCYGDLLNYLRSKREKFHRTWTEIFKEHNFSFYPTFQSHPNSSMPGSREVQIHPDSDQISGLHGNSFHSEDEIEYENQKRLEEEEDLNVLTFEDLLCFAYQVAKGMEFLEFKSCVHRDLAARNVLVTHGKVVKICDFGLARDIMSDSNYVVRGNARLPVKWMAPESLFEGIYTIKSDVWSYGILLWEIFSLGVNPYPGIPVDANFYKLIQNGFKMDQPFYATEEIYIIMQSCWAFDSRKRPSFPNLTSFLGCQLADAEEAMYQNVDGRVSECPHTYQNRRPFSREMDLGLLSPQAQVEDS
# [2] = biological target: Ba/F3-FGFR1-transfected cells (Homo sapiens, UniProt P11362); experiment: Ba/F3-FGFR1 (minus IL3) cellular proliferation assay, Alamar Blue; details: minus IL3, 384 well
# Sequence of Ba/F3-FGFR1-transfected cells (P11362 whole entry, change not shown): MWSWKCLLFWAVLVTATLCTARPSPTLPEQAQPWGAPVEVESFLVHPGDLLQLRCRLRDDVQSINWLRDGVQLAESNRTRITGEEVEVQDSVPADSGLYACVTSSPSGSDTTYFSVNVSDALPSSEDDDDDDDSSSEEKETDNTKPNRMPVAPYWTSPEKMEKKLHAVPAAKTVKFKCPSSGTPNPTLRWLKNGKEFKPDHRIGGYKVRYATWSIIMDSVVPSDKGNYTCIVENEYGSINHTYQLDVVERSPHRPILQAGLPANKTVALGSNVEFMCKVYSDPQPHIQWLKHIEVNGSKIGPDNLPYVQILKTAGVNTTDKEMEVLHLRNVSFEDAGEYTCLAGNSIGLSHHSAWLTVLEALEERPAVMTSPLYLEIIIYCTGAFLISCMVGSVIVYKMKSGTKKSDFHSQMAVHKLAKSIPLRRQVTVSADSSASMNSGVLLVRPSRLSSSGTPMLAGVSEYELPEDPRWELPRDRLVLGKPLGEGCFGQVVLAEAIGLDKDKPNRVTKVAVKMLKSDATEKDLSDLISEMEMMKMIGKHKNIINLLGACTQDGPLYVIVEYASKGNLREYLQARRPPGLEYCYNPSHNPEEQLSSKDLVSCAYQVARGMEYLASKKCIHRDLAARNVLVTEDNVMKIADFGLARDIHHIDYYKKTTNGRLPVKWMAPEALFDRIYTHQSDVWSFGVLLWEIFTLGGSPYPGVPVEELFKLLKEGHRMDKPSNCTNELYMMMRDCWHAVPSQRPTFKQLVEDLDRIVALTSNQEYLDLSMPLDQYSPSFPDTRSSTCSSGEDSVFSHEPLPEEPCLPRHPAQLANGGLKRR
# Protocol: Ba/F3-FGFR1 (Minus IL3 or Plus IL3) (Cellular Proliferation Assay)
# (§1) Cells were put in an incubator at 37° C. and 5% CO2. After 24 hours, 10 μl of Alamar Blue solution (0.5 mM K3Fe(CN)6, 0.5 mM KaFe(CN)6, 0.15 mM Resazurin and 100 mM Phosphate Buffer) was added to the wells, incubated for 4 hours at 37° C. and 5% CO2 before RFU's (Relative Fluorescence Units) (ex. 540 nm., em. 590 nm.) were measured in a flurorescence plate reader. […]
# (§2) In a 96 well plate, 180 μl cell culture medium (phenol red free RPMI-1640, 10% FBS, 2 mM L-Glutamine and 50 μg/ml Gentamycin) containing 10000 cells per well of Ba/F3-FGFR1-transfected cells were pipette and 20 μl of compound dilution in DMSO was added. Cells were put in an incubator at 37° C. and 5% CO2. After 24 hours, 40 μl of Alamar Blue solution (0.5 mM K3Fe(CN)6, 0.5 mM KaFe(CN)6, 0.15 mM Resazurin and 100 mM Phosphate Buffer) was added to the wells, incubated for 4 hours at 37° C. and 5% CO2 before RFU's (Relative Fluorescence Units) (ex. 540 nm., em. 590 nm.) were measured in a flurorescence plate reader.
# [3] = biological target: Ba/F3-FGFR3-transfected cells (Homo sapiens, UniProt P22607); experiment: Ba/F3-FGFR3 (minus IL3) cellular proliferation assay, Alamar Blue; details: for BAF3-FGFR 3 (MIN IL3) 384 well pIC50: minus IL3, 384 well; for BAF3-FGFR 3 (MIN IL3) 96 well pIC50: minus IL3, 96 well
# Sequence of Ba/F3-FGFR3-transfected cells (P22607 whole entry, change not shown): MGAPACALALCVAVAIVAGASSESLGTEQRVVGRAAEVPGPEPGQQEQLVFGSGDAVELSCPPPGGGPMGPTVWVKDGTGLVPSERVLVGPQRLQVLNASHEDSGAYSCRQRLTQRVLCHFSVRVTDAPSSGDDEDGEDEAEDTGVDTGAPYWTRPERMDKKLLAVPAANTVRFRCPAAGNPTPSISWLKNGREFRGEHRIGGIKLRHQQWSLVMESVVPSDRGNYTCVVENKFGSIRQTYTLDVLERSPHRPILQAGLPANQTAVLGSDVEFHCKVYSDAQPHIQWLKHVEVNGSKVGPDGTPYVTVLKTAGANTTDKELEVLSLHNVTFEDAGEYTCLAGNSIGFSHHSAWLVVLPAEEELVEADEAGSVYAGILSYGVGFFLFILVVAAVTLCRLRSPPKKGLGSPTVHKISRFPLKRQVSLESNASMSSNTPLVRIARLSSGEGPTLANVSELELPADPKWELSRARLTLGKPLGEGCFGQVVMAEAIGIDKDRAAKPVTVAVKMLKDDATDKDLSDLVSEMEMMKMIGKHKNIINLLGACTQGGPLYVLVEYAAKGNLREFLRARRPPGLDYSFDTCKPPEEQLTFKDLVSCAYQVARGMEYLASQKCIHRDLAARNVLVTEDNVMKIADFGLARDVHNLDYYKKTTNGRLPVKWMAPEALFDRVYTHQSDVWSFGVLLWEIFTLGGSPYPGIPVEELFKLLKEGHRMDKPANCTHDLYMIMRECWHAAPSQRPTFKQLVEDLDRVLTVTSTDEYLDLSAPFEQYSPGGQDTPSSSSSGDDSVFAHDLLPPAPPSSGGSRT
# Protocol: Ba/F3-FGFR3 (Minus IL3 or Plus IL3) (Cellular Proliferation Assay)
# as §1
# as §2, with “Ba/F3-FGFR3-transfected” for “Ba/F3-FGFR1-transfected”
# [4] = system: Ba/F3-Flt3-transfected cells in the presence of 10 ng/ml murine IL3; experiment: Ba/F3-Flt3 (plus IL3) cellular proliferation counterscreen, Alamar Blue; details: Mus musculus, read-out: BAF3-FLT3 (PLUS IL3) 384 well pIC50 (converted)
BAF3-FLT3 (MIN IL3) 384 well pIC50 ([1]; minus IL3),BAF3-FGFR 1 (MIN IL3) 384 well pIC50 [2],BAF3-FGFR 3 (MIN IL3) 384 well pIC50 [3],"BAF3-FLT3 (MIN IL3) 96 well pIC50 ([1]; minus IL3, 96 well)","BAF3-FLT3 (MIN IL3) 384 well pIC50 ([1]; minus IL3, 384 well)",BAF3-FGFR 3 (MIN IL3) 96 well pIC50 [3],BAF3-FLT3 (MIN IL3) 96 well pIC50 ([1]; minus IL3),SMILES,IC50 ([4]; plus 10 ng/ml murine IL3) [µM],"IC50 ([4]; plus IL3, 384 well) [µM]"
<5,6.07,6.29,,,,,COc1cc(OC)cc(N(CCO)c2ccc3ncc(C4=CCN(C(=O)OC(C)(C)C)CC4)nc3c2)c1 [Compound 178],> 10,
5.5,6.44,6.08,,,,,COc1cc(OC)cc(N(CCCNC(C)C)c2ccc3ncc(-c4ccnc(NC(=O)NC(C)C)c4)nc3c2)c1 [Compound 131],3.63,
<5,6.41,6.17,,,,,COc1cc(OC)cc(N(CCO)c2ccc3ncc(-c4ccc(N5CCOCC5)nc4)nc3c2)c1 [Compound 19],> 10,
<5,5.35,5.72,,,,,COc1cc(OC)cc(N(CCO)c2ccc3ncc(-c4ccnc(C(=O)NCCCCCO)c4)nc3c2)c1 [Compound 139],> 10,
<5,5.16,5.11,,,,,COc1cc(OC)cc(N(CCCNCC(F)(F)F)c2ccc3ncc(-c4ccnc(C(=O)NCCCCCO)c4)nc3c2)c1 [Compound 150],> 10,
<5,5.68,6.08,,,,,COc1cc(OC)cc(N(CCO)c2ccc3ncc(C4=CCN(C(=O)OC(C)(C)C)C4)nc3c2)c1 [Compound 173],> 10,
<5,6.46,6.41,,,,,COc1cc(OC)cc(N(CCNC(C)C)c2ccc3ncc(-c4ccnc(C(=O)NCCCN)c4)nc3c2)c1 [Compound 146],> 10,
<5,5.52,5.11,,,,,COc1cc(OC)cc(N(CCO)c2ccc3ncc(-c4ccccc4CCO)nc3c2)c1 [Compound 151],> 10,
,<5,<5,<5,<5,<5,,COc1cc(OC)cc(N(CC2CC2)c2ccc3ncc(N4CCOCC4)nc3c2)c1 [Compound 63],,> 10
<5,7.12,7.12,,,,,COc1cc(OC)cc(N(CCNC(C)C)c2ccc3ncc(-n4cnc(CO)c4)nc3c2)c1 [Compound 77],> 10,
<5,<5,<5,,,,,COc1cc(OC)cc(N(CCCNCC(F)(F)F)c2ccc3ncc(-c4ccnc(Cl)c4)nc3c2)c1 [Compound 145],> 10,
<5,6.49,6.65,,,,,"COCC(O)CN(c1cc(OC)cc(OC)c1)c1ccc2ncc(-c3cccnc3)nc2c1 (single isomer, unassigned) [Compound 46]",> 10,
<5,<5,<5,,,,,COc1cc(OC)cc(N(CCCNCC(=O)O)c2ccc3ncc(-c4ccnc(C(=O)NCCCCN)c4)nc3c2)c1 [Compound 44],> 10,
,<5,<5.52,<5,<5,5.04,,COc1cc(OC)cc(N(CC2CC2)c2ccc3ncc(C#Cc4cncn4C)nc3c2)c1 [Compound 22],,> 10
<5,<5,<5,,,,,COc1cc(OC)cc(N(CCCNCC(F)(F)F)c2ccc3ncc(-c4ccnc(C(=O)NCCCN)c4)nc3c2)c1 [Compound 148],> 10,
<5,6.37,6.19,,,,,COc1cc(OC)cc(N(CCN2CCOCC2)c2ccc3ncc(-c4ccc(N)nc4)nc3c2)c1 [Compound 169],> 10,
5.38,6.56,6.12,,,,,COc1cc(OC)cc(N(CCO)c2ccc3ncc(-c4ccc(N5CCNCC5)nc4)nc3c2)c1 [Compound 165],~5.75,
5.04,6.76,7.1,,,,,COc1cc(OC)cc(N(CC#Cc2ncccc2OC)c2ccc3ncc(-c4cccnc4)nc3c2)c1 [Compound 183],> 10,
<5,5.44,5.16,,,,,COc1cc(OC)cc(N(CCNC(C)C)c2ccc3ncc(C(=O)N4CCOCC4)nc3c2)c1 [Compound 181],> 10,
<5,6.36,6.19,,,,,COc1cc(OC)cc(N(CCN2CCOCC2)c2ccc3ncc(-c4ccc(NC(=O)N5CCOCC5)nc4)nc3c2)c1 [Compound 35],> 10,
<5,<5,5.08,,,5.51,<5,COc1cc(OC)cc(N(CC2CC2)c2ccc3ncc(-c4c[nH]cn4)nc3c2)c1 [Compound 39],> 10,
<5,5.42,5.38,,,,,COc1cc(OC)cc(N(CCNC(C)C)c2ccc3ncc(NCC4CCNCC4)nc3c2)c1 [Compound 161],> 10,
<5,6.13,~6.15,,,,,COc1cc(OC)cc(N(CCN2CCN(C(C)=O)CC2)c2ccc3ncc(-c4ccc(N)nc4)nc3c2)c1 [Compound 68],> 10,
5.19,6.6,5.36,,,,,COC(=O)C1CCCN1c1cnc2ccc(N(CCO)c3cc(OC)cc(OC)c3)cc2n1 (stereo not shown) [Compound 172],> 10,
<5,<5,5.01,,,,,COc1cc(OC)cc(N(CCO)c2ccc3ncc(C4CCN(C(=O)OC(C)(C)C)CC4)nc3c2)c1 [Compound 185],> 10,
